For the assay, the system named is mice, ADJ-PC-20 plasma cell tumor sc, T/C %. The assay can be described thus: NCI In Vivo Anticancer Drug Screen. Data for tumor model ADJ-PC-20 Plasma Cell (subcutaneous) in unknown mice. The note with it: endpoint: mean tumor weight, higher = larger tumour. As for the experimental part: The antitumor activity of compounds was measured in mice bearing transplantable tumors. Survival or tumor size were measured and the results are expressed as the measurement made in the treated group (T) divided by the measurement made in the vehicle treated control group (C). The tumor model used in this assay is ADJ-PC-20 Plasma Cell (subcutaneous) in unknown mice

[1] abbreviates: dose: 6.25 mg/kg/injection, schedule: Q01DX010 (ip), vehicle: carboxymethylcellulose (CMC).
[2] abbreviates: dose: 12.5 mg/kg/injection, schedule: Q01DX010 (ip), vehicle: carboxymethylcellulose (CMC).
Setting [3] is: dose: 25.0 mg/kg/injection, schedule: Q01DX010 (ip), vehicle: carboxymethylcellulose (CMC).
[4] abbreviates: dose: 125.0 mg/kg/injection, schedule: Q01DX010 (sc), vehicle: steriod suspending solution.
Setting [5] is: dose: 250.0 mg/kg/injection, schedule: Q01DX010 (sc), vehicle: steriod suspending solution.
Setting [6] is: dose: 500.0 mg/kg/injection, schedule: Q01DX010 (sc), vehicle: steriod suspending solution.
Setting [7] is: dose: 1000.0 mg/kg/injection, schedule: Q01DX010 (sc), vehicle: steriod suspending solution.
Where [8] appears, read: dose: 37.5 mg/kg/injection, schedule: Q01DX010 (ip), vehicle: carboxymethylcellulose (CMC).

Values joined by “and” are separate entries in the source; they are usually repeats but may differ in a detail not shown here. Equal values may be shown once. Results filed as inconclusive are left out.

For `Cc1n[nH]c(=O)[nH]c1=O`, the T/C (dose: 100.0 mg/kg/injection, schedule: Q01DX010 (ip), vehicle: other) was 80 % of control and the T/C (dose: 200.0 mg/kg/injection, schedule: Q01DX010 (ip), vehicle: other) was 85 % of control.
As for `O=P1(N(CCCl)CCCl)NCCCO1` (stereo not given), the T/C is 21 % of control (dose: 3.2 mg/kg/injection, schedule: Q01DX010 (ip), vehicle: saline) and 7 % of control (dose: 6.25 mg/kg/injection, schedule: Q01DX010 (ip), vehicle: saline).
With `Nc1ncnc2[nH]ncc12`, the T/C is, setting by setting: under setting [1], 108 % of control; under setting [2], 87 % of control; under setting [3], 22 % of control.
On to `CCCNc1ncnc2[nH]ncc12`, for which the T/C (dose: 5.0 mg/kg/injection, schedule: Q01DX010 (ip), vehicle: water) is 97 % of control; the T/C (dose: 10.0 mg/kg/injection, schedule: Q01DX010 (ip), vehicle: water) was 86 % of control; the T/C (dose: 20.0 mg/kg/injection, schedule: Q01DX010 (ip), vehicle: water) is 95 % of control.
`C[C@]12CCC(=O)C=C1CC[C@H]1[C@@H]3CC[C@](O)(C(=O)CO)[C@@]3(C)C[C@H](O)[C@@]12F`: the T/C is 62 % of control (dose: 2.5 mg/kg/injection, schedule: Q01DX010 (sc), vehicle: steriod suspending solution); 43 % of control (dose: 5.0 mg/kg/injection, schedule: Q01DX010 (sc), vehicle: steriod suspending solution); 33 % of control (dose: 10.0 mg/kg/injection, schedule: Q01DX010 (sc), vehicle: steriod suspending solution).
For `CCC(=O)O[C@H]1CC[C@H]2[C@@H]3CCC4=CC(=O)CC[C@]4(C)[C@H]3CC[C@]12C`, the T/C is 79 % of control under setting [4]; 154 % of control under setting [5]; 76 % of control under setting [6]; 108 % of control under setting [7]; 80 % of control (dose: 2000.0 mg/kg/injection, schedule: Q01DX010 (sc), vehicle: steriod suspending solution).
In the case of `C[C@H](N)C(=O)N[C@@H]1[C@H]2C(=C(O)C[C@@H](O)[C@@H]2O)C(=O)O[C@@H]1C`, the T/C (dose: 250.0 mg/kg/injection, schedule: Q01DX010 (ip), vehicle: saline) was 48 % of control and the T/C (dose: 500.0 mg/kg/injection, schedule: Q01DX010 (ip), vehicle: saline) is 58 % of control.
With `C[C@]12CCC(=O)C=C1CC[C@@H]1[C@@H]2C(=O)C[C@@]2(C)[C@H]1CC[C@]2(O)C(=O)CO`, the T/C by setting is: (dose: 31.25 mg/kg/injection, schedule: Q01DX010 (sc), vehicle: steriod suspending solution) 7 % of control; under setting [4], 11 % of control.
Take `Clc1ncnc2nc[nH]c12`: the T/C by setting is: (dose: 7.8 mg/kg/injection, schedule: Q01DX010 (ip), vehicle: carboxymethylcellulose (CMC)) 153 % of control; (dose: 15.6 mg/kg/injection, schedule: Q01DX010 (ip), vehicle: carboxymethylcellulose (CMC)) 86 % of control; (dose: 31.2 mg/kg/injection, schedule: Q01DX010 (ip), vehicle: carboxymethylcellulose (CMC)) 64 % of control; (dose: 31.25 mg/kg/injection, schedule: Q01DX010 (ip), vehicle: carboxymethylcellulose (CMC)) 14 % of control; (dose: 62.5 mg/kg/injection, schedule: Q01DX010 (ip), vehicle: carboxymethylcellulose (CMC)) 3 % of control; (dose: 125.0 mg/kg/injection, schedule: Q01DX010 (ip), vehicle: carboxymethylcellulose (CMC)) 4 % of control.
As for `O=CN(O)CC(=O)O`, the T/C (dose: 62.5 mg/kg/injection, schedule: Q01DX011 (ip), vehicle: carboxymethylcellulose (CMC)) is 124 % of control; the T/C (dose: 125.0 mg/kg/injection, schedule: Q01DX011 (ip), vehicle: carboxymethylcellulose (CMC)) is 76 % of control; the T/C (dose: 250.0 mg/kg/injection, schedule: Q01DX011 (ip), vehicle: carboxymethylcellulose (CMC)) is 74 % of control; the T/C (dose: 500.0 mg/kg/injection, schedule: Q01DX010 (ip), vehicle: carboxymethylcellulose (CMC)) was 89 % of control; the T/C (dose: 500.0 mg/kg/injection, schedule: Q01DX011 (ip), vehicle: carboxymethylcellulose (CMC)) was 56 % of control; the T/C (dose: 1000.0 mg/kg/injection, schedule: Q01DX010 (ip), vehicle: carboxymethylcellulose (CMC)) is 63 % of control.
Regarding `O=C(Nc1ccc(C2=NCCN2)cc1)c1cccc(C(=O)Nc2ccc(C3=NCCN3)cc2)c1`, the T/C (dose: 9.4 mg/kg/injection, schedule: Q01DX010 (ip), vehicle: carboxymethylcellulose (CMC)) was 154 % of control; the T/C (dose: 18.8 mg/kg/injection, schedule: Q01DX010 (ip), vehicle: carboxymethylcellulose (CMC)) was 214 % of control; the T/C under setting [8] is 187 % of control.
In the case of `O=C1CCC(N2C(=O)c3ccccc3C2=O)C(=O)N1` (stereo not given), the T/C by setting is: (dose: 18.75 mg/kg/injection, schedule: Q01DX010 (ip), vehicle: carboxymethylcellulose (CMC)) 55 % of control; under setting [8], 104 % of control; (dose: 75.0 mg/kg/injection, schedule: Q01DX010 (ip), vehicle: carboxymethylcellulose (CMC)) 107 % of control; (dose: 150.0 mg/kg/injection, schedule: Q01DX010 (ip), vehicle: carboxymethylcellulose (CMC)) 82 % of control and 99 % of control; (dose: 300.0 mg/kg/injection, schedule: Q01DX010 (ip), vehicle: carboxymethylcellulose (CMC)) 107 % of control and 113 % of control; (dose: 600.0 mg/kg/injection, schedule: Q01DX010 (ip), vehicle: carboxymethylcellulose (CMC)) 82 % of control.
Take `O=C(O)CCCc1ccc(N(CCCl)CCCl)cc1`: the T/C under setting [1] is 120 % of control and the T/C under setting [2] is 58 % of control.
`O=C(Nc1ccc(C2=NCCN2)cc1)c1ccc(C(=O)Nc2ccc(C3=NCCN3)cc2)c(Cl)c1`: the T/C runs as follows: (dose: 1.62 mg/kg/injection, schedule: Q01DX010 (ip), vehicle: water) 108 % of control; (dose: 3.12 mg/kg/injection, schedule: Q01DX010 (ip), vehicle: water) 152 % of control; (dose: 6.25 mg/kg/injection, schedule: Q01DX010 (ip), vehicle: water) 94 % of control; (dose: 6.3 mg/kg/injection, schedule: Q01DX010 (ip), vehicle: water) 64 % of control; (dose: 7.5 mg/kg/injection, schedule: Q01DX010 (ip), vehicle: water) 81 % of control and 83 % of control; (dose: 12.5 mg/kg/injection, schedule: Q01DX010 (ip), vehicle: water) 121 % of control. Moreover, for the setting “dose: 30.0 mg/kg/injection, schedule: Q01DX010 (ip), vehicle: water”, the T/C was 55 % of control and 66 % of control.
Take `C[N+](C)(C)c1ncnc2nc[nH]c12`: the T/C by setting is: (dose: 0.8 mg/kg/injection, schedule: Q01DX010 (ip), vehicle: carboxymethylcellulose (CMC)) 70 % of control; (dose: 1.6 mg/kg/injection, schedule: Q01DX010 (ip), vehicle: carboxymethylcellulose (CMC)) 59 % of control; (dose: 3.1 mg/kg/injection, schedule: Q01DX010 (ip), vehicle: carboxymethylcellulose (CMC)) 69 % of control; (dose: 6.3 mg/kg/injection, schedule: Q01DX010 (ip), vehicle: carboxymethylcellulose (CMC)) 70 % of control; under setting [2], 36 % of control; under setting [3], 52 % of control. The T/C (dose: 50.0 mg/kg/injection, schedule: Q01DX010 (ip), vehicle: carboxymethylcellulose (CMC)) is 6 % of control.
As to `CC[C@@H](c1ccc(O)cc1)[C@@H](CC)c1ccc(O)cc1`, the T/C was 80 % of control (dose: 62.0 mg/kg/injection, schedule: Q01DX010 (sc), vehicle: steriod suspending solution); 87 % of control under setting [4]; 83 % of control under setting [5]; 91 % of control and 105 % of control under setting [6]; 111 % of control under setting [7].
For the compound `C1CN1c1nc(N2CC2)nc(N2CC2)n1`, the T/C was 38 % of control (dose: 0.01 mg/kg/injection, schedule: Q01DX010 (ip), vehicle: saline); 170 % of control (dose: 1.9 micrograms/kg/injection, schedule: Q01DX010 (ip), vehicle: saline); 100 % of control (dose: 7.8 micrograms/kg/injection, schedule: Q01DX010 (ip), vehicle: saline); 101 % of control (dose: 8.0 micrograms/kg/injection, schedule: Q01DX010 (ip), vehicle: saline); 99 % of control (dose: 15.0 micrograms/kg/injection, schedule: Q01DX010 (ip), vehicle: saline); 105 % of control (dose: 31.0 micrograms/kg/injection, schedule: Q01DX010 (ip), vehicle: saline). The T/C was 37 % of control (dose: 31.2 micrograms/kg/injection, schedule: Q01DX010 (ip), vehicle: saline) and 66 % of control (dose: 63.0 micrograms/kg/injection, schedule: Q01DX010 (ip), vehicle: saline).
As for `C[n+]1c2ccccc2nc2c(N)cc(N)cc21`, the T/C is 92 % of control under setting [1], 114 % of control under setting [2] and 99 % of control under setting [3].

The values above are taken from PubChem BioAssay AID332 (DTP/NCI, 2004).
